Results from article PMC3638593, “1,4-dihydroxy-2-naphthoic Acid Induces Apoptosis in Human Keratinocyte: Potential Application for Psoriasis Treatment” (Evidence-based Complementary and Alternative Medicine : eCAM, 2013).
Values joined by “and” are separate entries in the source; they are usually repeats but may differ in a detail not shown here. Equal entries are not always repeated.

Assays:
Type in all cases: cell-based, human
[1] = Proliferation/cytotoxicity assay (sulphorhodamine B) on Hs-68 fibroblast; conditions: human, Hs-68 foreskin fibroblast cells; Hs-68 fibroblast, incubation 72 h; read-out: IC50 on growth (cytotoxic effect)
[2] = Proliferation/cytotoxicity assay (sulphorhodamine B) on PIG1 melanocyte; conditions: human, PIG1 immortalized epidermal melanocyte cells; PIG1 melanocyte, incubation 72 h; read-out: IC50 on growth (cytotoxic effect)
[3] = tested on: Hs-68 cells; assay: Proliferation/cytotoxicity assay (sulphorhodamine B) on Hs-68 fibroblast; conditions: Hs-68, compared with dithranol
[4] = tested on: PIG1 cells; assay: Proliferation/cytotoxicity assay (sulphorhodamine B) on PIG1 melanocyte; conditions: PIG1, compared with dithranol

Compound | IC50 at 72 h [1] | IC50 at 72 h [2] | less cytotoxicity on fibroblasts than dithranol [3] | less cytotoxicity on melanocytes than dithranol [4]
O=C1c2c(O)cccc2Cc2cccc(O)c21 [Dithranol, dithranol, reference compound] | 27.4 µM and 6.2 µg/mL | 2.34 µM and 0.53 µg/mL | – | –
O=C(O)c1cc(O)c2ccccc2c1O [DHNA, 1,4-dihydroxy-2-naphthoic acid] | 226 µM and 46.2 µg/mL | 24 µM and 4.9 µg/mL | ~ 8 times | ~ 10 times
